Data: paper PMC4535766, “Antiprotozoal Activity Profiling of Approved Drugs: A Starting Point toward Drug Repositioning” (PLoS ONE, 2015)
Like-named read-outs stand apart in the source and are kept apart here.

Columns and labels:
T. brucei = tested on: T. brucei; design: method as in PMID 11302796; conditions: cited from earlier work
P. falciparum strain K1 = assay: In vitro activity against P. falciparum, serial drug dilution assay; conditions: for selectivity ratio: rat
Method: (§1) Drug stock solutions (10mg/ml) were in DMSO (100%). […] Selectivity index (SI) was calculated as IC50 L6 cells/IC50 parasite.

[1] = Cytotoxicity on macrophages infected with L. donovani; assay type: cell-based, mouse; conditions: mouse
[2] = In vitro cytotoxicity with mouse peritoneal macrophages (Alamar Blue); assay type: cell-based; conditions: mouse
Method: After 96 h of incubation, the plates were inspected under an inverted microscope to assure sterility. […] The IC50 values were calculated by linear regression from the sigmoidal dose inhibition curves using SoftmaxPro software (Molecular Devices Cooperation, Sunnyvale, CA, USA).

[3] = tested on: T. b. rhodesiense strain STIB 900, trypomastigotes; assay: In vitro activity against T. b. rhodesiense, serial drug dilution assay; conditions: for selectivity ratio: rat
Method: as §1

[4] = tested on: L. donovani strain MHOM-ET-67/L82 amastigotes; assay: in vitro; conditions: mouse
Summary of the method: (§2)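 Axenic amastigotes grown at pH 5.4 infected mouse peritoneal macrophages for 4 h before free parasites were washed off. Next day, seven 3-fold drug dilutions (30–0.04 μg/ml) were added for 96 h. Giemsa-stained infected macrophages were counted, burden reduction was taken vs untreated controls, and IC50 came from linear regression.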

[5] = tested on: intracellular amastigotes of L. donovani strain MHOM-ET-67/L82; assay: Activity against Leishmania donovani intracellular amastigotes in mouse peritoneal macrophages
Summary of the method: as §2

[6] = tested on: axenic amastigotes of L. donovani, strain MHOM-ET-67/L82; assay: In vitro activity against L. donovani axenic amastigotes, serial drug dilution assay; assay type: cell-based, Leishmania donovani
Method: as §1

[7] = tested on: T. cruzi, strain Tulahuen C4, intracellular amastigotes; assay: microbe, parasite or virus in culture; conditions: for selectivity ratio: rat, Selectivity index: IC50 Cytotoxicity L6/ IC50 T. cruzi
Method: as §1

in vitro = conditions: rat
Method: as §1

[8] = tested on: macrophages infected with L. donovani; assay: Cytotoxicity on macrophages infected with L. donovani; assay type: cell-based, mouse
Entamoeba histolytica = conditions: cited from earlier work
L6 cells = assay: Cytotoxicity on L6 cells
Method: as §1

[9] = design: method as in PMID 6813497; conditions: cited from earlier work
[10] = tested on: T.b.rhodesiense (STIB900); assay: T.b.rhodesiense (STIB900) acute mouse model; assay type: in vivo; conditions: daily oral administration of up to 25 mg/kg over a 4 day period, acutely infected mouse model
Method: The STIB900 acute mouse model mimics the first stage of the disease. Four female NMRI mice were used per experimental group. Each mouse was inoculated i.p. with 10^4 bloodstream forms of STIB900, respectively. Heparinized blood from a donor mouse with approximately 5x10^6 /ml parasitaemia was suspended in PSG to obtain a trypanosome suspension of […]. Each mouse was injected with 0.25 ml. Compounds were formulated in 100% DMSO, diluted 10-fold in distilled water. Compound treatment was initiated 3 days post-infection on four consecutive days for all administration routes (i.p., p.o.) in a volume of 0.1 ml/10 g. Three mice served as infected-untreated controls. […] Parasitaemia was monitored using smears of tail-snip blood twice a week after treatment for two weeks followed by once a week until 60 days post-infection. Mice are considered cured when there is no parasitaemia relapse detected in the tail blood over the 60-day observation period. Mean relapse days were determined as day of relapse post-infection of mice.

[11] = Plasmodium falciparum, K1, read-out: IC50 P. falc. K1
[12] = macrophages infected with L. donovani, read-out: IC50 Cytotox. mac.inf.
[13] = Trypanosoma brucei, read-out: IC50 T. b. rhod.
[14] = Leishmania donovani, Peritoneal macrophage, in Mus musculus, 96 h, read-out: IC50 L. don. intracell
[15] = Leishmania donovani, axenic amastigotes, strain MHOM-ET-67/L82, means of two independent assays, read-out: IC50 L. don. axen.
[16] = Trypanosoma cruzi, TULAHUEN, read-out: IC50 T. cruzi
[17] = read-out: IC50 P. falc. K1, strain K1, means of two independent assays
[18] = read-out: IC50 T. b. rhod., strain STIB 900, trypomastigotes, means of two independent assays
[19] = read-out: IC50 L. don. intracell, intracellular amastigotes in mouse peritoneal macrophages, strain MHOM-ET-67/L82, 96 h
[20] = axenic amastigotes, strain MHOM-ET-67/L82, means of two independent assays, read-out: IC50 L. don. axen.
[21] = read-out: IC50 Cytotox. L6, L6 cells, means of two independent assays
[22] = read-out: IC50 T. cruzi, strain Tulahuen C4, intracellular amastigotes, means of two independent assays
[23] = rats, oral single dose 6.7 mg /kg
[24] = Trypanosoma brucei, read-out: T. b. rhod. IC50
[25] = Selectivity index: IC50 Cytotoxicity macrophages/ IC50 L. donovani
[26] = Trypanosoma cruzi, TULAHUEN, read-out: T. cruzi IC50
[27] = L6 cells, IC50 Cytotox. L6, L6 cells, means of two independent assays

| Molecule | IC50 (P. falciparum strain K1; [11]) | IC50 at 96 h [1, 12] | IC50 at 96 h [2] | IC50 [3, 13] | IC50 [5, 14] | IC50 [6, 15] | IC50 [7, 16] | IC50 [8, 12] | IC50 [6, 20] | IC50 (in vitro; IC50 Cytotox. L6) | selectivity ratio at 96 h [4, 25] | also measured |
| --- | --- | --- | --- | --- | --- | --- | --- | --- | --- | --- | --- | --- |
| NC1CCC(C23CC4CC(CC(C4)C2)C3)CC1 (centres unmarked) [1-adamantyl-4-amino-cyclohexane] | – | – | – | – | – | – | – | – | – | – | – | Times more effective than rimantadine (T. brucei): 20 to 25 times |
| C[C@@H]1[C@H](O)[C@@H](C)/C=C/C=C/C=C/C=C/C=C/C=C/C=C/[C@H](O[C@@H]2O[C@H](C)[C@@H](O)[C@H](N)[C@@H]2O)C[C@@H]2O[C@](O)(C[C@@H](O)C[C@@H](O)[C@H](O)CC[C@@H](O)C[C@@H](O)CC(=O)O[C@H]1C)C[C@H](O)[C@H]2C(=O)O [Amphotericin B] | 0.8 µM | 32.4 µM | 22.4 µM | 0.76 µM | 0.31 µM | 340 nM | 56.7 µM | – | – | – | – | selectivity ratio (P. falciparum strain K1): 13; selectivity ratio [3]: 14; selectivity ratio at 96 h [4]: 95; IC50 (in vitro): 10.3 µM |
| CC(=O)OC[C@H]1O[C@@H]([S-])[C@H](OC(C)=O)[C@@H](OC(C)=O)[C@@H]1OC(C)=O.CCP(CC)CC.[Au+] [Auranofin] | – | – | – | – | – | – | – | 4.42 µM | 110 nM | – | – | IC50 (P. falciparum strain K1; [17]): 1.67 µM; Selectivity index: IC50 Cytotoxicity L6/ IC50 T. b. rhodesiense [3]: 479; IC50 [3, 18]: 0.01 µM; Activity against intracellular amastigotes at a fixed concentration [5]: did not exhibit activity; IC50 [5, 19]: > 1.47 µM; Times better activity against Entamoeba histolytica than the standard drug metronidazole (Entamoeba histolytica): 10 times; IC50 (L6 cells; [21]): 4.79 µM; IC50 [7, 22]: 2.27 µM; Bioavailability [9]: 17–23%; Terminal half-life based on blood levels [9, 23]: 29 h; Terminal half-life based on serum levels [9, 23]: 43 h; In vivo efficacy (reduction of parasitemia or increased survival time) [10]: no in vivo efficacy was observed |
| Cc1cc(C2CCCCC2)n(O)c(=O)c1 [Ciclopirox olamine] | 3.75 µM | 20.3 µM | 20.3 µM | 0.8 µM | 9.09 µM | 1640 nM | 2.49 µM | > 11.2 µM | – | 1.04 µM | – | selectivity ratio at 96 h ([4]; mouse peritoneal macrophages versus L. donovani amastigotes, Selectivity index: IC50 Cytotoxicity macrophages/ IC50 L. donovani, axenic or intracellular IC50 not specified): 9 |
| CC(C)/N=c1\cc2n(-c3ccc(Cl)cc3)c3ccccc3nc-2cc1Nc1ccc(Cl)cc1 [Clofazimine] | – | 6.34 µM | 10.7 µM | – | 0.95 µM | 22400 nM | – | – | – | – | ~10 | IC50 (P. falciparum strain K1; Plasmodium falciparum, K1, read-out: P. falc. IC50): 4.1 µM; IC50 [3, 24]: 7.63 µM; IC50 [7, 26]: 38.2 µM; IC50 (in vitro; Cytotox. L6 IC50): 9.97 µM |
| OC(Cn1cncn1)(Cn1cncn1)c1ccc(F)cc1F [Fluconazole] | – | > 98 µM | – | 273 µM | > 98 µM | 211000 nM | 9.96 µM | – | – | – | – | IC50 (L6 cells; [21]): > 294 µM; selectivity ratio [7]: > 30; IC50 (in vitro; [27]): > 294 µM |
| NNC(=O)c1ccncc1 [Izoniazide] | – | – | – | – | – | – | – | – | > 656000 nM | – | – | IC50 (P. falciparum strain K1; [17]): > 36.5 µM; IC50 [8]: > 219 µM; IC50 [3, 18]: > 656 µM; IC50 [5, 19]: > 219 µM; IC50 (L6 cells): > 656 µM |
| O=C(O)c1nn(Cc2ccc(Cl)cc2Cl)c2ccccc12 [Lonidamine] | > 15.6 µM | > 93.4 µM | – | 135 µM | > 93.4 µM | 8660 nM | 177 µM | > 93.4 µM | – | 273 µM | > 11 | – |
| O=C(Nc1ccc([N+](=O)[O-])cc1Cl)c1cc(Cl)ccc1O [Niclosamide] | 1.14 µM | – | – | 1.67 µM | > 0.31 µM | 150 nM | 2.49 µM | – | – | 2.3 µM | – | MCC at 96 h [1, 12]: 1010 nM; Concentrations toxic to mouse macrophages ([8]; mouse, 96 h): > 0.3 µg/mL; Activity against intracellular amastigotes at a fixed concentration ([5]; at a concentration of 0.1 μg/ml): inactive |
| CC1CS(=O)(=O)CCN1/N=C/c1ccc([N+](=O)[O-])o1 (centres unmarked) [Nifurtimox] | – | 34.8 µM | 15.7 µM | 1.44 µM | 20.7 µM | 2760 nM | 0.19 µM | > 34.8 µM | – | 87 µM | 13 | Activity against T. b. rhodesiense (in words) ([3]; in vitro): active; selectivity ratio ([3]; Selectivity index: IC50 Cytotoxicity L6/ IC50 T. b. rhodesiense): 60; selectivity ratio [7]: 458 |
| CCN(CC)CCCCCCNc1cc(OC)cc2c(C)ccnc12 [Sitamaquine] | 0.08 µM | – | 21.4 µM | – | – | – | – | – | – | – | – | selectivity ratio (P. falciparum strain K1; Selectivity index: IC50 Cytotoxicity L6/ IC50 P. falciparum): 404; IC50 at 96 h ([1]; mouse peritoneal macrophages infected with L. donovani, infected macrophages, read-out: Cytotox. mac.inf. IC50): > 29.1 µM; IC50 [3, 24]: 7.39 µM; Activity against L. donovani intracellular amastigotes (in words) [5]: moderate activity; IC50 ([5]; Leishmania donovani, Peritoneal macrophage, in Mus musculus, read-out: L. don. intracell IC50): 19.5 µM; Activity against L. donovani axenic amastigotes (in words) [6]: moderate activity; IC50 ([6]; Leishmania donovani, L. donovani axenic amastigotes, read-out: L. don. axen. IC50): 13600 nM; IC50 [7, 26]: 22 µM; IC50 (in vitro; [27]): 32.3 µM |
| CCC[C@@]1(CCc2ccccc2)CC(O)=C([C@H](CC)c2cccc(NS(=O)(=O)c3ccc(C(F)(F)F)cn3)c2)C(=O)O1 [Tipranavir] | 44.6 µM | – | – | 26.4 µM | > 49.8 µM | < 3000 nM | 28.2 µM | > 49.8 µM | 1640 nM | – | > 30 | IC50 at 96 h ([1]; mouse peritoneal macrophages infected with L. donovani, macrophages infected with L. donovani, read-out: IC50 Cytotox. mac.inf.): > 50 µM; IC50 (in vitro; [27]): 53.4 µM |
| Bacitracine | – | – | – | – | – | – | – | – | > 70300 nM | – | – | IC50 (P. falciparum strain K1; [17]): 19.8 µM; IC50 [3, 18]: > 70.3 µM; IC50 [5, 19]: > 21.1 µM; IC50 (L6 cells; [21]): 42.2 µM; IC50 [7, 22]: 47.1 µM |
